Experimental data published in ChEMBL document CHEMBL1201862, “PubChem BioAssay data set” (2004).
Calls of active or inactive are those of the source.

Key:
[1] = Cytotoxicity screening for potential Inhibitors of Bacterial Capsule Biogenesis. [Related pubchem assays (depositor defined):AID488970]; assay type: functional
Nonstructural protein 1 = Nonstructural protein 1 (Influenza A virus, UniProt Q194T2); assay type: functional, Influenza A virus (A/California/07/2009(H1N1))
[2] = Shn3 3'UTR reporter inhibitors, dose response, cell-based, Clone20 osteoblasts, firefly luciferase, cherry-picked (AID 624132); assay type: functional;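 further: firefly luciferase luminescence from reporter carrying the Shn3 3'UTR in osteoblasts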
[3] = HepG2 cell cytotoxicity, dose response, cytotoxicity control for Shn3 inhibitor project, CellTiter-Glo, cherry-picked (AID 624134); assay type: functional, cell-based
[4] = control 3'UTR Renilla luciferase suppression, dose response, counter-screen for Shn3 inhibitor project, cell-based, Clone20-Shn3RL, cherry-picked (AID 624133); assay type: functional
[5] = HeLa cell cytotoxicity, dose response, cytotoxicity control for MgcRacGAP inhibitor project (AID 624300); assay type: functional
[6] = molecular target: T1, Rac GTPase-activating protein 1 (Homo sapiens, UniProt Q9H0H5); experiment: MgcRacGAP GTPase-activating activity inhibitors, confirmation, biochemical, ADP Hunter fluorescence, primary and confirmatory (AID 624330); assay type: functional
T1 sequence (Q9H0H5 whole entry): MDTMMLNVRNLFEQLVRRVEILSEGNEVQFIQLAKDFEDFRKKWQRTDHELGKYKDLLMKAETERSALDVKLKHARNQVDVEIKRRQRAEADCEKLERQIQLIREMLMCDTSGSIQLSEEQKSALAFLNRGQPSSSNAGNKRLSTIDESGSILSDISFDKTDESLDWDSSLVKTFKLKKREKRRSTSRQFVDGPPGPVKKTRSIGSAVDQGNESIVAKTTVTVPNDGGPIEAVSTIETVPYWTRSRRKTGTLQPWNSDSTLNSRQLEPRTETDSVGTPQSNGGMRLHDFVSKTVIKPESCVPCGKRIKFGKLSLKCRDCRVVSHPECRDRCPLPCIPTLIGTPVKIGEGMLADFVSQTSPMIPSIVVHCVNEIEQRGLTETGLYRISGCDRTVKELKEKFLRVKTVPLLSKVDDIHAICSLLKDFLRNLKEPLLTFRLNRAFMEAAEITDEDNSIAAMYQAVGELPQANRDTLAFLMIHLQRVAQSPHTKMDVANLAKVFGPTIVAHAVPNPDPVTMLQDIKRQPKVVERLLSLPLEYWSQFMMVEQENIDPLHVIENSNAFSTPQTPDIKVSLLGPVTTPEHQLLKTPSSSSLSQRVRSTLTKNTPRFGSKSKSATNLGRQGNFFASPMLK

[7] = molecular target: T2, DNA repair protein RAD52 homolog (Homo sapiens, UniProt P43351); assay type: functional, biochemical
T2 sequence (P43351 whole entry): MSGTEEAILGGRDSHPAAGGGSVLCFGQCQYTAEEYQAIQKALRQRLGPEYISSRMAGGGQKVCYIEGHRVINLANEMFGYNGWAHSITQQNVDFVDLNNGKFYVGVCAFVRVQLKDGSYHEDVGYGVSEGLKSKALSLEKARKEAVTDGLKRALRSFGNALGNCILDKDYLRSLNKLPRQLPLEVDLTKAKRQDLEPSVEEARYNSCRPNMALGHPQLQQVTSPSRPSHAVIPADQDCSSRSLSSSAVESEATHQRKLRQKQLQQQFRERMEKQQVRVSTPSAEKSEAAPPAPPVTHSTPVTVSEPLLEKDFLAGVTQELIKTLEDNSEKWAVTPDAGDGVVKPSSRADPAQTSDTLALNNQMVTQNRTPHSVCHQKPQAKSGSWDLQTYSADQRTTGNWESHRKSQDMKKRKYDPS

[8] = IRAP inhibitors, dose response, selectivity assay for ERAP1 modulator project, biochemical, Leu-AMC fluorescence, cherry-picked samples, set 2 (AID 743340)
[9] = molecular target: Endoplasmic reticulum aminopeptidase 1 (Homo sapiens, UniProt Q9NZ08); experiment: ERAP1 aminopeptidase inhibitors, dose response, biochemical, cherry-pick, set 2, plate reader (AID 743314)
[10] = molecular target: Protein phosphatase methylesterase 1 (Homo sapiens, UniProt Q9Y570); experiment: PME-1 inhibitor potency by in-gel ABPP, dose response, selectivity assay for PME-1 inhibitor project, cell lysate, mouse brain cytosol, FP-rhodamine, panel member PME-1 Assay Panel member description: Inhibition of endogenously expressed PME-1 (AID 2366)
[11] = molecular target: T3, Short transient receptor potential channel 4 (Mus musculus, UniProt Q9QUQ5); experiment: mouse TRPC4 channel inhibitors, dose response, cell-based, HEK293 TRPC4/mu-opioid, Fluo-4 calcium (AID 434942); assay type: functional;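 further: potency of inhibitors blocking the TRPC4 calcium response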
T3 sequence (Q9QUQ5 whole entry): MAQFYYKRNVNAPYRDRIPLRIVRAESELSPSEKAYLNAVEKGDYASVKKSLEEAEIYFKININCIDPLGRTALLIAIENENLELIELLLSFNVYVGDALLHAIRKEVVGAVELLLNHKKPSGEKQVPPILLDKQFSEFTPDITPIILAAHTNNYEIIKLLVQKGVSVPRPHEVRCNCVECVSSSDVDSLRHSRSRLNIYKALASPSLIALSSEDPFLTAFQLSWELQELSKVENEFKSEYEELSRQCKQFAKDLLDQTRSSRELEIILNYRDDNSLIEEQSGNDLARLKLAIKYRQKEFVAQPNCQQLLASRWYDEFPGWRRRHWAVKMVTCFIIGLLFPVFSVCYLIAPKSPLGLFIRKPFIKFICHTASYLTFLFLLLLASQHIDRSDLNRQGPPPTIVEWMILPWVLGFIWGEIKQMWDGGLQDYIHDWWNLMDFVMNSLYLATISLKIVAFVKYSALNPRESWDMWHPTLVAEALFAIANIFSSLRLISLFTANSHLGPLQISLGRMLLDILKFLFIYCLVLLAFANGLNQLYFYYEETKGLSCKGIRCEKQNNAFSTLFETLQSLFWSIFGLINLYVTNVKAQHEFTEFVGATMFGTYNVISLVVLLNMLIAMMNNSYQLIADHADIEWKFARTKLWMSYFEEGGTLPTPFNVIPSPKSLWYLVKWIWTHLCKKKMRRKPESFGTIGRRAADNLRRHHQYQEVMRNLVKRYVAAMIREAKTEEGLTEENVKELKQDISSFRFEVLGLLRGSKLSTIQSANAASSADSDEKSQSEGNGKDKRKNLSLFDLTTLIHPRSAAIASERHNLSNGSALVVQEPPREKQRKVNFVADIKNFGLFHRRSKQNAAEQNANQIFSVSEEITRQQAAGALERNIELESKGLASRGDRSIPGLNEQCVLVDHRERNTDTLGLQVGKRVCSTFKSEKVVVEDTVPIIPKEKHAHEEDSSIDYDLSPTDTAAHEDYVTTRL

[12] = molecular target: T4, Voltage-gated N-type calcium channel alpha-1B subunit/Amyloid beta A4 precursor protein-binding family A member 1 (Homo sapiens, UniProt Q00975+Q02410); experiment: disruptors of Mint-PDZ/N-type channel peptide interaction – biochemical, HTRF, set 2, SAR follow-up (AID 434980); assay type: functional
[13] = molecular target: T4, Voltage-gated N-type calcium channel alpha-1B subunit/Amyloid beta A4 precursor protein-binding family A member 1; experiment: disruptors of Mint-PDZ/N-type channel peptide interaction – biochemical, HTRF, SAR follow-up (AID 2489); assay type: functional
[14] = molecular target: Tyrosine-protein phosphatase non-receptor type 12 (Homo sapiens, UniProt Q05209); experiment: SAR Selectivity Analysis of small molecule inhibitors of PEST using pCAP in a fluorescence assay. [Related pubchem assays (depositor defined):AID1779, AID1784, AID2135]; assay type: functional
[15] = molecular target: T5, Dual specificity protein phosphatase 3 (Homo sapiens, UniProt P51452); experiment: SAR VHR1 absorbance Assay for In Vitro dose response studies. [Related pubchem assays (depositor defined):AID1654, AID1661, AID1878, AID1992, AID2004]
[16] = molecular target: T5, Dual specificity protein phosphatase 3; experiment: SAR VHR1 Fluorescent Assay for In Vitro dose response studies. [Related pubchem assays (depositor defined):AID1654, AID1661, AID1878, AID1992, AID2004, AID2070, AID2085]; assay type: functional
[17] = molecular target: T6, Tyrosine-protein phosphatase non-receptor type 22 (Homo sapiens, UniProt Q9Y2R2); experiment: SAR LYP1 Fluorescent Assay using OMFP substrate for In Vitro dose response studies - Set 3. [Related pubchem assays (depositor defined):AID1779, AID1784, AID2140, AID2686]; assay type: functional
T6 sequence (Q9Y2R2 whole entry): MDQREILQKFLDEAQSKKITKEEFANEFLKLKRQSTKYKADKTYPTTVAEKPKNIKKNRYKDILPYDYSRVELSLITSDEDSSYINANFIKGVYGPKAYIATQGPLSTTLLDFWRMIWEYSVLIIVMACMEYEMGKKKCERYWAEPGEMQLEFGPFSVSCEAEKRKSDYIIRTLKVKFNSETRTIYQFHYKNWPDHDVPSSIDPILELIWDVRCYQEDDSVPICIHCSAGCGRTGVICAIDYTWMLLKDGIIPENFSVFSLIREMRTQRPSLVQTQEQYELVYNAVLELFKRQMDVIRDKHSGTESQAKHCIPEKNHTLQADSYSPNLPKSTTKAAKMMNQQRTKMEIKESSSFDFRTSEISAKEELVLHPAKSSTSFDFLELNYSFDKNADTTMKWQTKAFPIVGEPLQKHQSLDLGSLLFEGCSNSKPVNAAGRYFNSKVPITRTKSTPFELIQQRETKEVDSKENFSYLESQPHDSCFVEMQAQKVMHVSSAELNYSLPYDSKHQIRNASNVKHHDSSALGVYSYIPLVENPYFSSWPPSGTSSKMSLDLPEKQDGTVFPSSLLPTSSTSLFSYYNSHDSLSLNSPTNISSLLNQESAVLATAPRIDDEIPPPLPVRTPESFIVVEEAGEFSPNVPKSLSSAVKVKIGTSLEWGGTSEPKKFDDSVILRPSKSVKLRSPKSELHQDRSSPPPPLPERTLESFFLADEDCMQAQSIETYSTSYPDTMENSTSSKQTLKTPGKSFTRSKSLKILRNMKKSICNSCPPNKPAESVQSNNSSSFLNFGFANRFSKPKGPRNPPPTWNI

[18] = molecular target: T7, Tyrosine-protein phosphatase non-receptor type 7 (Homo sapiens, UniProt P35236); experiment: redox-dependent HePTP inhibition, mechanism study, biochemical, fluorescence (AID 2068); assay type: functional
T7 sequence (P35236 whole entry): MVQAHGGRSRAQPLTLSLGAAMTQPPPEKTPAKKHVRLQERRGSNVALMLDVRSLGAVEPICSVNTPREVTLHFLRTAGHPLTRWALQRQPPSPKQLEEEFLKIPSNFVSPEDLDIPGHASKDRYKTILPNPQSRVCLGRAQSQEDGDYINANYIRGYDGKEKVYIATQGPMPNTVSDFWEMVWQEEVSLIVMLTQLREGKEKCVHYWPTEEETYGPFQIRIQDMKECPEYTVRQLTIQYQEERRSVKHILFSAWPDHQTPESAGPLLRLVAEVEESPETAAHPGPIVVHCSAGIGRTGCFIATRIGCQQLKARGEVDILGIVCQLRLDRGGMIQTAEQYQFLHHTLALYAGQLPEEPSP

[19] = molecular target: T6, Tyrosine-protein phosphatase non-receptor type 22; experiment: LYP (PTPN22) phosphatase inhibitor potency, SAR follow-up, biochemical, pCAP fluorogenic substrate, fluorescence, set 3 (AID 449727); assay type: functional
[20] = molecular target: T8, Dual specificity protein phosphatase 6 (Rattus norvegicus, UniProt Q64346); assay type: functional;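 further: confirmatory in vitro dose-response testing of MKP-3 inhibition; recombinant His-tagged MKP-3 made in E. coli BL21 with OMFP substrate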
T8 sequence (Q64346 whole entry): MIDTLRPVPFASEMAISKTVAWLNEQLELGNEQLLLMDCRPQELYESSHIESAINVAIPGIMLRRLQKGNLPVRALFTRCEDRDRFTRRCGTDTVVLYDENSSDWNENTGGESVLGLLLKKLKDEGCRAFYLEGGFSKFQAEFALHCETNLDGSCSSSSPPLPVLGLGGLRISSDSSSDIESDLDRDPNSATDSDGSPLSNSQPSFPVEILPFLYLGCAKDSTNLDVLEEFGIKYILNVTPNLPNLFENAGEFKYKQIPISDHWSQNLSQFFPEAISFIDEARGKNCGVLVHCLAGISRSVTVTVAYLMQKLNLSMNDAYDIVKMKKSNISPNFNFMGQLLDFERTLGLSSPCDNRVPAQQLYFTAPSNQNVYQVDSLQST

ORF 73 = ORF 73 (Human herpesvirus 8, UniProt O40947); experiment: inhibitors of C-LANA binding to LBS DNA, dose response, biochemical, fluorescence polarization, cherry-picked samples (AID 504725); set-up: species or system Human gammaherpesvirus 8;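 further: fluorescence polarization of a labeled DNA duplex reporting LANA DNA binding; potency is for inhibitors that block LANA binding to the DNA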
[21] = molecular target: Intestinal-type alkaline phosphatase (Homo sapiens, UniProt P09923); experiment: Dose Response confirmation of uHTS hits from a small molecule inhibitors of human intestinal alkaline phosphatase via a luminescent assay. [Related pubchem assays (depositor defined):AID2544, AID2574]; assay type: functional
X-box-binding protein 1 = X-box-binding protein 1 (Homo sapiens, UniProt P17861); assay type: functional, Cricetulus griseus;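 further: confirmatory dose-response counter-screen serving a CHOP assay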
Chain of X-box-binding protein 1 (P17861 whole entry): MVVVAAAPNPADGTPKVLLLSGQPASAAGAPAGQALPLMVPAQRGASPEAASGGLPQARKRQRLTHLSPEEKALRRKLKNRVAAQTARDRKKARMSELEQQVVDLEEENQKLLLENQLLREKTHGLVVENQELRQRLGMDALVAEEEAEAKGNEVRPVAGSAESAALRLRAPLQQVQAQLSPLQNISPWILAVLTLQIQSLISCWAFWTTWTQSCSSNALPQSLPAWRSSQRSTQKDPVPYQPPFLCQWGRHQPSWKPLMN

T5 sequence (P51452 whole entry): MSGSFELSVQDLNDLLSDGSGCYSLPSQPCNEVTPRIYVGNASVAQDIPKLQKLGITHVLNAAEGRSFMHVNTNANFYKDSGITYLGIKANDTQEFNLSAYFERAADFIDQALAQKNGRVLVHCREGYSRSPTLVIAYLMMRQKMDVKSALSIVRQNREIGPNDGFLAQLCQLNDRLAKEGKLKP
T4 sequence (Q00975 whole entry): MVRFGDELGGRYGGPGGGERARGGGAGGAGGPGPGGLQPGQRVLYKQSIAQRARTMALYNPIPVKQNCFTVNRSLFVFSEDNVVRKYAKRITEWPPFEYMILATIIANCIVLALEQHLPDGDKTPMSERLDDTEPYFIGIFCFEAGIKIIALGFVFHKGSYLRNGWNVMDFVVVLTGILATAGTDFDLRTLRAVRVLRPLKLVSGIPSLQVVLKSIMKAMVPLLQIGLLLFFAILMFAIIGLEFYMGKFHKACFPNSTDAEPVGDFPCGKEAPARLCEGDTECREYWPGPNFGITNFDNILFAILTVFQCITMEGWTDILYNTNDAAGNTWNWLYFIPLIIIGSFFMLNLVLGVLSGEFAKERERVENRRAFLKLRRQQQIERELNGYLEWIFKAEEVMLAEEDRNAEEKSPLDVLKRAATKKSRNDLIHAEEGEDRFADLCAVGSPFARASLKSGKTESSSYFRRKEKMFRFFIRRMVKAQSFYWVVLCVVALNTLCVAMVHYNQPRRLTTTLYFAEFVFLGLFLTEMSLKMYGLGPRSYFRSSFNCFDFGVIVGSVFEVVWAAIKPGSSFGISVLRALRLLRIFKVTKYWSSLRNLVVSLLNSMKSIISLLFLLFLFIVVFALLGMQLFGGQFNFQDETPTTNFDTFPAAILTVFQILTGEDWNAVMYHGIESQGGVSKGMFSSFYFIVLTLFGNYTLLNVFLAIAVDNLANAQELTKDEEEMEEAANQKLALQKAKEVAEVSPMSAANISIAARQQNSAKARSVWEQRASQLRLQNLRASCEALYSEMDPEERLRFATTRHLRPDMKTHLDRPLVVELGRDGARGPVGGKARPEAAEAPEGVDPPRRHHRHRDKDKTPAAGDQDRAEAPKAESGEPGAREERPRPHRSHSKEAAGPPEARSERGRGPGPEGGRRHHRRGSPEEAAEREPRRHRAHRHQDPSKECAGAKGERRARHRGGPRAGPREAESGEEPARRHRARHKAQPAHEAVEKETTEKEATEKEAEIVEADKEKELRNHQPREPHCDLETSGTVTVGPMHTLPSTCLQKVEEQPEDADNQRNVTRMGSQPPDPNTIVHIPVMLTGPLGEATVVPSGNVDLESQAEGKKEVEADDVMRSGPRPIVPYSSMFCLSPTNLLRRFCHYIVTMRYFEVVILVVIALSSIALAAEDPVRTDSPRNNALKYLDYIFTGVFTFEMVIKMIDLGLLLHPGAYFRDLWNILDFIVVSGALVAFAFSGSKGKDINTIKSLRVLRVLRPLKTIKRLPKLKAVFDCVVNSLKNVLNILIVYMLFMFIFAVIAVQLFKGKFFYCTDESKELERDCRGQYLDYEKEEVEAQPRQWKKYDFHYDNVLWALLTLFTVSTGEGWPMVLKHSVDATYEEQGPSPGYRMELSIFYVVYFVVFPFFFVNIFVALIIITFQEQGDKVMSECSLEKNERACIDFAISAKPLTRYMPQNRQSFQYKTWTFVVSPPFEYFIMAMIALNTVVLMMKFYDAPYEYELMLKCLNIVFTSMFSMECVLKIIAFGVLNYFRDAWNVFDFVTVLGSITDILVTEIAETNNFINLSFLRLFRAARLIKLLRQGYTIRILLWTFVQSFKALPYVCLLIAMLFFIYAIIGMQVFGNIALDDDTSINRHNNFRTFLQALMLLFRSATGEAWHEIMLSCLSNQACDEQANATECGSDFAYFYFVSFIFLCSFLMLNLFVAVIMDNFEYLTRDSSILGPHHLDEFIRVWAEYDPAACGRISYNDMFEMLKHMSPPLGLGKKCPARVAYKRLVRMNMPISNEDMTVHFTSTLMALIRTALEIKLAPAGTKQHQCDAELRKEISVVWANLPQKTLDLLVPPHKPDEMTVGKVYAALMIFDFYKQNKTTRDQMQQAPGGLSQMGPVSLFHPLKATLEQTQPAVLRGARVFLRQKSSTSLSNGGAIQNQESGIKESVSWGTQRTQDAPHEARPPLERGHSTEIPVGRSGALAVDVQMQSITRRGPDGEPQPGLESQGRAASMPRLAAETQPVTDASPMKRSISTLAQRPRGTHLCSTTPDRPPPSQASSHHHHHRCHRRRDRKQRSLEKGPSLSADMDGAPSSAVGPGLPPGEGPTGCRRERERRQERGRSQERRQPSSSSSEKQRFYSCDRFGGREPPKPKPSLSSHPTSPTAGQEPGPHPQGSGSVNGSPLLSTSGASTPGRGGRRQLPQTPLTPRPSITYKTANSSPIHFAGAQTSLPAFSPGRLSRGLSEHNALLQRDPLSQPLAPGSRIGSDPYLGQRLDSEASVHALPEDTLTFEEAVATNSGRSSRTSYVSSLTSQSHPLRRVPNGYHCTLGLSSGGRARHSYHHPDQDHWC
T4 sequence (Q02410 whole entry): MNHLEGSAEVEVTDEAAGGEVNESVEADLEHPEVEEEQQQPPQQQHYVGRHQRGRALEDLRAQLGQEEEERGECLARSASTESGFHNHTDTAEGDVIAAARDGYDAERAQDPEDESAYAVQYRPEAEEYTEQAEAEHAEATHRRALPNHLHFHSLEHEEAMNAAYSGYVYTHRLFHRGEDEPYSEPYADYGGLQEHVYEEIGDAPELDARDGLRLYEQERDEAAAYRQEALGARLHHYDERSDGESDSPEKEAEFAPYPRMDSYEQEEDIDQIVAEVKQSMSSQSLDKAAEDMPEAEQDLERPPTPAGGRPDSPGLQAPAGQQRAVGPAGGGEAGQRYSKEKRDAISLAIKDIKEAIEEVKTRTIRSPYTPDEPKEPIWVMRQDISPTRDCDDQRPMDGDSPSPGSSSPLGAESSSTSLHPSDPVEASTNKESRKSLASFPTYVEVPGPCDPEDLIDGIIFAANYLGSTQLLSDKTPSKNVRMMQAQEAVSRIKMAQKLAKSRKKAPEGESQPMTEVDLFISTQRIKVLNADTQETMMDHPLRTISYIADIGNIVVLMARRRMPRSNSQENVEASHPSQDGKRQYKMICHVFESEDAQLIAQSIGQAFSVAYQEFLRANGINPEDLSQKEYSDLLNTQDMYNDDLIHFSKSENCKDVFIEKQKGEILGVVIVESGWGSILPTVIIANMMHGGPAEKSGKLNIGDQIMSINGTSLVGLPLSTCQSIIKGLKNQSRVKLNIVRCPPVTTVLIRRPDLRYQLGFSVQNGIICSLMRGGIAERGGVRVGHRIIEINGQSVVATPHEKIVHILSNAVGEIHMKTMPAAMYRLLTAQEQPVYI
Chain of Protein phosphatase methylesterase 1 (Q9Y570 whole entry): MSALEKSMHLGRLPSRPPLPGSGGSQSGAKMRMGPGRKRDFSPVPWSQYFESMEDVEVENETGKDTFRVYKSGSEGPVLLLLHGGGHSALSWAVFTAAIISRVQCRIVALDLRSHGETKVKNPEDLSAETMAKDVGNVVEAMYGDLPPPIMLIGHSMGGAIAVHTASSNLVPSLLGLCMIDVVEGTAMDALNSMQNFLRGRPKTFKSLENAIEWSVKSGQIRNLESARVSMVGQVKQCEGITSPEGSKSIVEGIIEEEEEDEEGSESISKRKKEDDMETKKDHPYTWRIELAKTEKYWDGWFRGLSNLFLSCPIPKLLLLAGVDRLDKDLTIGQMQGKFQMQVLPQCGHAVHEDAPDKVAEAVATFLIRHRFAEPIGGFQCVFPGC
Chain of ORF 73 (O40947 whole entry): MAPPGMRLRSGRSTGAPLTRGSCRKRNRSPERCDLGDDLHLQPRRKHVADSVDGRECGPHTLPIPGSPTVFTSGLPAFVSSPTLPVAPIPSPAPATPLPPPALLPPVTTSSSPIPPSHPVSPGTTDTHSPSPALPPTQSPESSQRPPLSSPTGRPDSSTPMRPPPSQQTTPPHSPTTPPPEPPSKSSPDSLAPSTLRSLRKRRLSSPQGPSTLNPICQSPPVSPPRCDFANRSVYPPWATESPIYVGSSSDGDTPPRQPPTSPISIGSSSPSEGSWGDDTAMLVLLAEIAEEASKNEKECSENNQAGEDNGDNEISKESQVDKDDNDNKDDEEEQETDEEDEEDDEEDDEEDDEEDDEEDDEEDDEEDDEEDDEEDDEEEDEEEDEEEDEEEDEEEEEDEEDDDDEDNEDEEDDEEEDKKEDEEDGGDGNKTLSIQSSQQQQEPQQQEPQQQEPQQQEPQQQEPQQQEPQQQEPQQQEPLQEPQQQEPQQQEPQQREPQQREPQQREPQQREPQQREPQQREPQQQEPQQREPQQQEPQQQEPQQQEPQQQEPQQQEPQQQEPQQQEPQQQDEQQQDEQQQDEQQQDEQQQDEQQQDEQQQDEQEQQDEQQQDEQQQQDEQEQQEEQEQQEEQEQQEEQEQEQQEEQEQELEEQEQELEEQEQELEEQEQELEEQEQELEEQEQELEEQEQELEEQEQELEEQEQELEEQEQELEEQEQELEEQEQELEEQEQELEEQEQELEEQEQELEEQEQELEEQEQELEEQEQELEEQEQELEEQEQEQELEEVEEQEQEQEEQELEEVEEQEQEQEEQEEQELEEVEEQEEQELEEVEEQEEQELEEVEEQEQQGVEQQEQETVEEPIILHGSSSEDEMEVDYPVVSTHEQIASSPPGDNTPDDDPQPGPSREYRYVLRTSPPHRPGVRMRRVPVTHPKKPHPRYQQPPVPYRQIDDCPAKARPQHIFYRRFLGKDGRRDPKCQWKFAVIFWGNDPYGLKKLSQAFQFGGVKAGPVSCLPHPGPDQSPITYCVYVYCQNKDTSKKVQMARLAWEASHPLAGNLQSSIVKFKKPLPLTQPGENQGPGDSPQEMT

CCN(CCCl)c1cc(CN(C)C)cc(NC(=O)c2ccc(C(=O)Nc3cc(CN(C)C)cc(N(CC)CCCl)c3)cc2)c1
active: CC50 [1] < 0.38 µM | IC50 (Nonstructural protein 1) 7.89 µM | AC50 [2] 2.65 µM | AC50 [3] 1.25 µM | AC50 [4] 13.1 µM | CC50 [5] 6.78 µM | IC50 [6] 126 µM | AC50 [7] 1.71 µM | AC50 [8] 19.4 µM | AC50 [9] 4.85 µM

N#CC(C#N)=Cc1cccn1S(=O)(=O)c1ccccc1
inactive: IC50 [10] 20 µM

CCCCn1c2ccccc2c2nnc(SCCN3CCCCC3)nc21
active: EC50 [11] 6.68 µM

CC12C=CC(C)(O1)C1C(=O)N(c3ccc(Cl)cc3)C(=O)C12 (centres undefined)
inactive: IC50 [12] > 56.8 µM | IC50 [13] > 56.8 µM

Cc1cc(OCC(=O)O)ccc1S(C)(=O)=O
inactive: IC50 [14] > 100 µM | IC50 [15] > 100 µM | IC50 [16] > 99 µM | IC50 [17] > 100 µM | IC50 [18] > 100 µM | IC50 [19] > 100 µM | IC50 [20] > 99 µM

CCOc1ccc(-n2c(Cc3cc(O)nc(O)n3)nnc2SCc2cccnc2)cc1
active: AC50 (ORF 73) 76.4 µM

COC(=O)CN1C(=O)C(O)(CC(=O)c2ccc(C)cc2)c2ccccc21 (centres undefined)
inactive: IC50 [21] > 100 µM

Cc1csc(NC(=O)CSc2nnc3c4ccccc4nc(C(C)(C)C)n23)n1
10 µM: Absolute IC50 (XBP1) (X-box-binding protein 1)
